Structures can show the parent of a compound that is named as a salt.
Assay: Refractive index ne at 23° C., reference wavelength 546.1 nm
Format: physicochemical
Conditions: not given

Compound	ne (refractive index) of the substance	ne (refractive index) of aqueous solution 200 g/L
OCC(F)(OC(F)(F)C(F)(OC(F)(F)C(F)(F)C(F)(F)F)C(F)(F)F)C(F)(F)F (centres unmarked) [Cheminox PO-3-OH, 2,3,3,3-tetrafluoro-2-[1,1,2,3,3,3-hexafluoro-2-(heptafluoropropoxy)propoxy]-1-propanol]	1.2944	–
ammonium sulfate	–	1.3629
tetrahydrofurfuryl alcohol polyethylene glycol ether	1.4621	–
dimethyl propylene urea	1.4909	–
O=C([O-])c1ccccc1O.[Na+] [sodium salicylate]	–	1.3747
N#C[S-].[Na+] [sodium thiocyanate]	–	1.3765
O.O.O.O.O.O.O.O=S(=O)([O-])[O-].[Mg+2] [magnesium sulfate heptahydrate]	–	1.3529
O.O.[Na+].[Na+].[O]=[W](=[O])([O-])[O-] [sodium tungstate dihydrate]	–	1.3531

Same assay, conditions: pure substance; 23° C.; 546.1 nm

Compound	ne (refractive index) of the substance
COC(=O)/C=C\C(=O)OC [dimethyl maleate]	1.4435
COC(=O)CCCCC(=O)OC [dimethyl adipate]	1.4289
CCOC(=O)/C=C\C(=O)OCC [diethyl maleate]	1.4414
CC(=O)CC(C)(C)O [diacetone alcohol, 4-hydroxy-4-methyl-2-pentanone]	1.4244
CCOC(=O)/C=C/C(=O)OCC [diethyl fumarate]	1.4419
CCCCC(CC)C(=O)OCCOCCOCCOC(=O)C(CC)CCCC (centres unmarked) [triethylene glycol bis(2-ethylhexanoate)]	1.4449
CCCCC(CC)COC(=O)CCCCCCCCC(=O)OCC(CC)CCCC (centres unmarked) [bis (2-ethylhexyl) sebacate]	1.4511
CC(=O)OCCOC(C)=O [ethylene glycol diacetate]	1.4161
CCOC(=O)CCC(=O)OCC [diethyl succinate]	1.4200
bis(hydroxymethyl)perfluoropolyether [Cheminox OXF-3PO-OH]	1.3220
CCCC(O)C(CC)CO (centres unmarked) [2-ethylhexane-1,3-diol]	1.4518
CCOCCOCCOCC [diethylene glycol diethyl ether]	1.4126
CCOC(=O)CC(O)(CC(=O)OCC)C(=O)OCC [triethyl citrate]	1.4431

Assay: not given
Conditions: source Merck; cited from earlier work

Compound	solubility in water (20° C.)
O.O.[Na+].[Na+].[O]=[W](=[O])([O-])[O-] [sodium tungstate dihydrate]	730 mg/mL
O.O.[Na+].[Na+].[O]=[Mo](=[O])([O-])[O-] [sodium molybdate dihydrate]	840 mg/mL

From patent US12393007B2, “Method for adapting optical properties of an immersion mixture, and immersion mixtures and components thereof” (Carl Zeiss Microscopy GmbH, priority 2018, dated 2025)
